We go through two compounds from patent EP0233031B1, “Methylthioribose analogues, their preparation and use as medicinal agents and biocides” (STATE OF OREGON BY AND THROUGH OREGON STATE BOARD OF HIGHER …, priority 1986, dated 1987).

Common to all, as to format: cell-based
Data set [1] relates to Candida albicans. Briefly: Growth inhibition of Candida albicans in LB broth (optical density / visible growth). The settings on record: for OD550 24 hrs / OD550 7 days / OD550 at 24 Hrs: 10^4 cells; for OD550 at 24 Hrs: LB broth. The method, then: In the following examples, an MTR kinase-dependent microorganism is treated in vitro with compounds of this invention. In the following examples, LB is a growth medium (Luria-Bertani) containing, per liter, 10 grams Bacto-tryptone, 5 grams Bacto-yeast extract and 10 grams NaCl. OD₅₅₀ is a measure of the optical density of the suspension at the indicated time. Low optical density indicates a low cell concentration in the suspension and thus that compounds were effective to inhibit the growth of the microorganisms.

In data set [2] the test system is Giardia lamblia (Portland 1 strain). Kind of data set: Inhibition of Giardia lamblia culture (cell number by hemacytometer). The method, then: • a. Procedure. Giardia lamblia was cultured in Diamond's TP-S-1 medium supplemented with 10% heat-inactivated calf serum and antibiotics (penicillin and streptomycin). The antibiotics were added to prevent contamination by bacteria. Tube cultures containing 7 mls of medium were seeded with 5 x 10⁴ organisms per ml and incubated horizontally at 37°C for 48 hrs. ETR was added at the beginning of the experiment. Cell number was determined with the aid of a hemacytometer. • b. Results. [formula]

In data set [3] the test system is Plasmodium falciparum. Kind of data set: Plasmodium falciparum in vitro erythrocyte culture, Giemsa-stained thin smears. The procedure: • a. Procedure. Parasitized erythrocytes from a stock four-day-old culture at approximately 10% infection were mixed with washed clean erythrocytes to give a final parasitemia of approximately 1%. Using 1.2 cm plastic Petri dishes duplicate 1 ml cultures were initiated with drug dilutions in complete RPMI-1640, containing 0.1 ml of erythrocytes and 50 ug of gentamycin/ml. The cultures were supplemented with RPMI-1640 (25 mM HEPES), 0.24% sodium bicarbonate and 10% human serum (Type A⁻). All cultures were gassed with 90% nitrogen, 5% carbon dioxide and 5% oxygen prior to incubation at 37°C. Parasite growth was assessed by microscopic evaluation of Giemsa-stained thin-smears. • b. Results. [formula]

Data set [4] concerns Ochromonas malhamensis (ATCC #11532). Kind of data set: Toxicity to Ochromonas malhamensis culture (cell number by hemacytometer). The settings on record: Poterioochromonas malhamensis, ATCC11532; 48 hours of incubation; thioglycolate broth; 4x10^4 cells per ml; read-out: ID50 (the source's name). The procedure:
• a. Procedure. 2 ml cultures of O. malhamensis were set up at a cell density of 4x10⁴ per ml. The culture medium used was thioglycolate broth and incubation took place at ambient temperature near a south-facing window (these organisms are photosynthetic). ETR was added at the appropriate dilution at the beginning of the experiment. Cell number was determined using a hemacytometer. The data (shown below) were obtained after 48 hours of incubation. • b. Results. [formula]

In data set [5] the test system is mouse marrow. Briefly: CFU-GM assay, toxicity toward mouse marrow. An excerpt:
In the following examples, human bone marrow and mouse marrow cells were subjected to ethylthioribose. In each case, a preparation of immature blood cells from bone marrow were conventionally stimulated to mature in a gel matrix. Immature human granulocytic precursor (CFU-GM) cells formed a colony in the matrix and the number of cells in the colony was counted. Such tests are believed to be a good measure of the toxicity of the subject compounds to humans.

Data set [6] has as its system Candida albicans. Kind of data set: Colony count of Candida albicans after incubation with ETR (cytocidal vs cytostatic). The settings on record: for Total # Organisms: colonies x dilution factor 200; for Colonies: 10^3 orgs, 100 l of 1:10 dilution plated. The source says:
In this example, samples containing a known number of microorganisms were colonized without ETR and in the presence of ETR. In the instances where growth occurred, one colony formed for each microorganism.

Turning to `OC1O[C@H](CCl)[C@@H](O)[C@H]1O` (some centres unmarked) [5-Chloro-5-Deoxyribose, 5-deoxy-5-chlororibose], the “OD550 24 hrs” value in data set [1] (0.2 of 10mM stock + LB 1.8), in data set [1] (0.4 of 10mM stock + LB 1.6) and in data set [1] (0.8 of 10mM stock + LB 1.2) was 0.0 in each case. The “OD550 7 days” value in data set [1] (0.2 of 10mM stock + LB 1.8), in data set [1] (0.4 of 10mM stock + LB 1.6) and in data set [1] (0.8 of 10mM stock + LB 1.2) was 0.0 in each case. Moreover, in data set [1] (conclusion of Example 20), the “killing of Candida albicans” value is reported as “effective to kill”.

In the case of `CCSC[C@H]1OC(O)[C@H](O)[C@@H]1O` (some centres unmarked) [ETR, 5-ethylthio-5-deoxyribose], the IC50 in data set [2] (Giardia duodenalis, 48 hrs at 37°C, 5 x 10^4 organisms per ml, read-out: ID50 (the source's name)) is approximately 450 µM; in data set [4], 20 µM. In addition, the “cell death and lack of "swimming"” value in data set [2] (concentrations ranging from 0.62mM to 5mM) is “significant cell death and lack of "swimming"”. Moreover, the parasitemia entry is recorded as “remained at or below the level of the initial inoculum” in data set [3] (24 hours, 1mM ETR); “remained at or below the level of the initial inoculum” in data set [3] (24 hours, 5mM ETR); “less than 0.1%” in data set [3] (48 hours, 1 mM ETR (lowest concentration tested), initial seeding <1.0%). The parasite growth entry in data set [3] (24 hours, 1 mM ETR (lowest concentration tested)) is reported as “a small increase in growth was noted but the parasites appeared abnormal”. For the same compound, the infection result in data set [3] (72 hours, 1 mM ETR (lowest concentration tested)) was “less than 1 parasite per 10,000 red cells”. In addition, the culture infection result in data set [3] (72 hours, all drug-treated cultures) is “completely negative”. For the same compound, the reappearance of parasitemia entry in data set [3] (after 5 days (the last 3 days without drug)) is recorded as “did not reappear”. Further, the “inhibition of P. falciparum in vitro” value in data set [3] (overall conclusion) was “inhibitory”. The CFU-GM in data set [5] (ETR 100 (1:1)) is given as 34 --; in data set [5] (ETR 100 (1:1k), duplicate counts), 36,37; in data set [5] (ETR 100 (1:2), duplicate counts), 37,33; in data set [5] (ETR 100 (1:4), duplicate counts) it was 32,34; in data set [5] (ETR 100 (1:10), duplicate counts), 36,34; in data set [5] (ETR 100 (1:10k), duplicate counts) it was 35,32. For the same compound, the CFU-GM in data set [5] (ETR 100 (1:20k), duplicate counts) is given as 32,34; in data set [5] (ETR 100 (1:40), duplicate counts), 33,35; in data set [5] (ETR 100 (1:50), duplicate counts), 37,36; in data set [5] (ETR 100 (1:100)), 39 --; in data set [5] (ETR 100 (1:100k), duplicate counts) it was 33,35; in data set [5] (ETR 100 (stock), duplicate counts), 35,36. Further, the entries for the “Total # Organisms” value in data set [6] (3 hrs (+ETR) 4mM) and in data set [6] (5 hrs (w/ETR) 4mM) were 400 and 0, respectively. Besides, the values for the Colonies in data set [6] (3 hrs incubation with ETR 0.5ml (4mM)) and in data set [6] (5 hrs incubation with ETR 1.5ml (4mM)) were 2 and 0, respectively. The “cytocidal as opposed to cytostatic” value in data set [6] (conclusion of Example 19) is listed as “cytocidal”. The “colonies formed in the presence of ETR” value in data set [6] (summary statement of Example 19) is “less than 1,000 colonies”. Moreover, the “OD550 at 24 Hrs” value in data set [1] (ETR 0.092mM) came to 0.409; in data set [1] (ETR 0.23mM), 0.355; in data set [1] (ETR 0.46mM), 0.357; in data set [1] (ETR 0.9mM), 0.120; in data set [1] (ETR 2.3mM) it was 0.0; in data set [1] (ETR 4.6mM), 0.0. Further, the “OD550 at 24 Hrs” value in data set [1] (ETR 9.2mM) is 0.0. In addition, the “growth of Candida albicans” value in data set [1] (conclusion of Examples 17 and 18) is given as “clearly inhibits the growth”.
